Results published in patent US20030087395A1, “Cardiotrophin-like cytokine” (Human Genome Sciences, Inc., priority 1997, published 2003).

Columns and labels:
PC12 cells = test: EGR-SEAP/PC12 screening assay for neuronal activity; assay type: cell-based, rat; conditions: 50 ng/ul; PC12 EGR-SEAP; typically seen
Excerpt: Particularly, the following protocol is used to assess neuronal activity in PC12 cell lines. PC12 cells (rat phenochromocytoma cells) are known to proliferate and/or differentiate by activation with a number of mitogens, such as TPA (tetradecanoyl phorbol acetate), NGF (nerve growth factor), and EGF (epidermal growth factor). The EGR1 gene expression is activated during this treatment. Thus, by stably transfecting PC12 cells with a construct containing an EGR promoter linked to SEAP reporter, activation of PC12 cells by CLC can be assessed.
The EGR/SEAP reporter construct can be assembled by the following protocol. The EGR-1 promoter sequence (−633 to +1; Sakamoto, K., et al., Oncogene 6:867-871 (1991)) can be PCR amplified from human genomic DNA using the following primers. The 5′ primer has the sequence: 5′-GCGCTCGAGGGATGACAGCGATAGAACCCCGG-3′ (SEQ ID NO:19) and the 3′ primer has the sequence: 5′-GCGAAGCTTCGCGACTCCCCGGATCCGCCTC-3′ (SEQ ID NO:20).
Using the GAS:SEAP/Neo vector produced in Example 6, EGR1 amplified product can then be inserted into this vector. Linearize the GAS:SEAP/Neo vector using restriction enzymes Xho I and Hind III, removing the GAS/SV40 stuffer. Restrict the EGR1 amplified product with these same enzymes. Ligate the vector and the EGR1 promoter. […]

[1] = test system: NF-κB promoter element in Jurkat T-cells; test: NF-κB/SEAP screening assay in Jurkat T-cells; assay type: cell-based; conditions: 0.1, 1, 10 ng, typically observed
Experimental: Due to its central role and ability to respond to a range of stimuli, reporter constructs utilizing the NF-κB promoter element are used to screen the supernatants produced in Example 6. Activators or inhibitors of NF-κB would be useful in treating diseases. For example, inhibitors of NF-κB could be used to treat those diseases related to the acute or chronic activation of NF-κB, such as rheumatoid arthritis and others.
PCR amplification is performed using the SV40 promoter template present in the pb-gal:promoter plasmid obtained from Clontech. The resulting PCR fragment is digested with Xho I and Hind III and subcloned into BLSK2-(Stratagene). Sequencing with the T7 and T3 primers confirms the insert contains the following sequence: 5′-CTC
Next, replace the SV40 minimal promoter element present in the pSEAP2-promoter plasmid (Clontech) with this NF-κB/SV40 fragment using Xho I and Hind III.
Particularly, the NF-κB/SV40/SEAP cassette was inserted into pGFP-1 (Clontech), replacing the GFP gene, after restricting pGFP- 1 with Sal I and Not I.
Once NF-κB/SV40/SEAP/Neo vector is created, stable Jurkat T-cells are created and maintained according to the protocol described in Example 9. Similarly, the method for assaying supernatants with these stable Jurkat T-cells is also described in Example 9. […]

| Substance | induction of SEAP in positive control wells (PC12 cells) | activation in positive control wells [1] |
| --- | --- | --- |
| NGF: growth factor known to activate PC12 cells through EGR | Over fifty-fold induction | – |
| TNF alpha | – | 5-10 fold |
